Where a chain is given by its changes, count along the chain named.

In assay [1] the target is T1, Saccharomyces cerevisiae diphosphomevalonate decarboxylase (PMDsc), wild type, SEQ ID NO: 1 (Saccharomyces cerevisiae, UniProt P32377).
T1 sequence (P32377 1-396): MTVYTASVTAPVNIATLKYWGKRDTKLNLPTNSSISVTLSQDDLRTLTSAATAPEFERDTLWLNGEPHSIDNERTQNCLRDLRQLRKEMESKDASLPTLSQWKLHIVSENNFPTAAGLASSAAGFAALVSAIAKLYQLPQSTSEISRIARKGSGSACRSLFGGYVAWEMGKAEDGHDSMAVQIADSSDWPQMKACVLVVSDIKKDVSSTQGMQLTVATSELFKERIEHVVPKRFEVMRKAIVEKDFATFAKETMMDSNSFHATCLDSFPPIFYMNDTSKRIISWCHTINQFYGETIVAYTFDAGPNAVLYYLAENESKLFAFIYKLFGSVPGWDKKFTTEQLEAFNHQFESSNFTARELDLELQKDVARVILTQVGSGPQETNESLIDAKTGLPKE
Also on record: His tag; made in house; host or cells: E. coli (Rosetta (DE3) is stated for the mutant plasmids). The settings on record: Kang et al., 2016, Krepkiy and Miziorko, 2004, cited from earlier work.

The target of assay [2] is T2, Saccharomyces cerevisiae diphosphomevalonate decarboxylase (PMDsc, SEQ ID NO: 1) variant M212Q (Saccharomyces cerevisiae, UniProt P32377, M212Q).
T2 construct: His tag; made in house; host or cells: E. coli Rosetta (DE3)
T2 sequence (P32377 1-396 M212Q): T1 sequence (P32377 1-396) with M212Q
Kind of assay: In vitro kinetics of MVAP decarboxylation by PMDsc M212Q (coupled assay). Format: biochemical. Conditions: MVAP 0.100-4.0 mM, 4 mM ATP, pH 7.5; brackets: standard error.

For assay [3], the target named is T3, Saccharomyces cerevisiae diphosphomevalonate decarboxylase (PMDsc, SEQ ID NO: 1) variant R74G (Saccharomyces cerevisiae, UniProt P32377, R74G).
T3 sequence (P32377 1-396 R74G): T1 sequence (P32377 1-396) with R74G
In words: In vitro kinetics of MVAP decarboxylation by PMDsc R74G (coupled assay).
Protocol: (§1) This turnover number (kobs) depends upon each mutant's kcat, KM, and KI, yielding a more accurate assessment of the turnover conditions in vivo (Kang et al., 2016).
(§2) In vitro enzyme kinetics of PMDsc were performed as described in the previous study (Kang et al., 2016). Briefly, enzymatic activity was determined by a spectrophotometric assay quantifying ADP product formation via the pyruvate kinase/lactate dehydrogenase coupled enzyme assay. Assay mixtures were prepared in 150 μL total volume containing 50 mM HEPES-KOH (pH 7.5), 10 mM MgCl2, 400 μM phosphoenolpyruvate, 400 μM NADH, 4 mM ATP, and 25 U of pyruvate kinase/lactate dehydrogenase. The reaction was initiated by enzyme after incubating PMDsc substrate and cofactor for fifteen minutes with coupled assay components. The MVAP was varied from 0.100-4.0 mM, and the reaction velocity was determined by monitoring the absorbance at 340 nm in a Spectramax 384plus microplate reader (Molecular Devices, USA). To obtain kinetic data relevant to non-competitive substrate inhibition, MVAP was varied from 0.100-100 mM. Enzyme concentration (ε=56,630 M^−1 cm^−1) was determined spectrophotometrically at 280 nm with a NanoDrop ND-1000 spectrophotometer. kcat and KM were derived for PMDsc mutants by fitting the initial velocities measured from 0.100-4.0 mM MVAP to the Michaelis-Menten equation; KI was determined for select mutants by fitting initial velocities measured from 0.100-100 mM MVAP to the non-competitive substrate inhibition equation. All kinetic analysis was performed in Graphpad Prism, version 7.0a.

In assay [4] the target is T4, Saccharomyces cerevisiae diphosphomevalonate decarboxylase (PMDsc, SEQ ID NO: 1) variant Y19H (Saccharomyces cerevisiae, UniProt P32377, Y19H).
T4 construct: His tag; made in house; host or cells: E. coli Rosetta (DE3)
T4 sequence (P32377 1-396 Y19H): T1 sequence (P32377 1-396) with Y19H
Kind of assay: In vitro kinetics of MVAP decarboxylation by PMDsc Y19H (coupled assay). Format: biochemical.

Assay [5] addresses T1, Saccharomyces cerevisiae diphosphomevalonate decarboxylase (PMDsc), wild type, SEQ ID NO: 1. Kind of assay: In vitro kinetics of MVAP decarboxylation by PMDsc WT (pyruvate kinase/lactate dehydrogenase coupled assay).
Protocol: as §1, §2
The mark [6] stands for this setting: MVAP 0.100-4.0 mM, 4 mM ATP, pH 7.5, brackets: standard error.
Setting [7] is: observed turnover number calculated at 100 mM MVAP, noncompetitive substrate inhibition.

As for `C[C@@](O)(CCOP(=O)(O)OP(=O)(O)O)CC(=O)O` [MVAPP, mevalonate 5-diphosphate], the “kcat (MVAPP)” value in assay [1] (original substrate MVAPP) is 5.4 s⁻¹.

In the case of `C[C@@](O)(CCOP(=O)(O)O)CC(=O)O` [MVAP, mevalonate 5-phosphate], the “kcat (MVAP)” value in assay [1] (alternative substrate MVAP) is 0.14 s⁻¹. Besides, the results for the kcat/KM in assay [2] and in assay [4] (setting [6]) were 500 ± 100 M⁻¹ s⁻¹ and 780 ± 60 M⁻¹ s⁻¹, respectively. For the same molecule, the kcat – broadly, the number of substrate molecules converted per active site and unit of time at saturation – in assay [3] (setting [6]) worked out at 0.14 s⁻¹; in assay [5] (setting [6]), 0.15 s⁻¹. Besides, the kobs in assay [3] (setting [7]) was 0.07 s⁻¹; in assay [5] (setting [7]) it was 0.02 s⁻¹. The “increase of kcat/KM compared to wild type” value in assay [4] (Y19H versus wild type PMDsc, MVAP) is reported as “about 10 fold”. The Km (usually the concentration of substrate that gives half-maximal velocity) in assay [5] (setting [6]) turned out to be 2300 µM.

The values are drawn from US11001838B2, “Platform for screening phosphomevalonate decarboxylase” (The Regents of the University of California, priority 2017, dated 2021).
